Results on 8 compounds are retold here after article PMC10190190 (Journal of Enzyme Inhibition and Medicinal Chemistry, 2023).

What all share (type): biochemical
For one assay, the target named is HDAC9 (Homo sapiens, UniProt Q9UKV0). Kind of assay: HDAC activity assay, HDAC9.
Another assay has as its target HDAC4 (Homo sapiens, UniProt P56524). Kind of assay: HDAC activity assay, HDAC4.
The target in the next assay is T1, HDAC6 (Homo sapiens, UniProt Q9UBN7).
T1 sequence (Q9UBN7 1-1215): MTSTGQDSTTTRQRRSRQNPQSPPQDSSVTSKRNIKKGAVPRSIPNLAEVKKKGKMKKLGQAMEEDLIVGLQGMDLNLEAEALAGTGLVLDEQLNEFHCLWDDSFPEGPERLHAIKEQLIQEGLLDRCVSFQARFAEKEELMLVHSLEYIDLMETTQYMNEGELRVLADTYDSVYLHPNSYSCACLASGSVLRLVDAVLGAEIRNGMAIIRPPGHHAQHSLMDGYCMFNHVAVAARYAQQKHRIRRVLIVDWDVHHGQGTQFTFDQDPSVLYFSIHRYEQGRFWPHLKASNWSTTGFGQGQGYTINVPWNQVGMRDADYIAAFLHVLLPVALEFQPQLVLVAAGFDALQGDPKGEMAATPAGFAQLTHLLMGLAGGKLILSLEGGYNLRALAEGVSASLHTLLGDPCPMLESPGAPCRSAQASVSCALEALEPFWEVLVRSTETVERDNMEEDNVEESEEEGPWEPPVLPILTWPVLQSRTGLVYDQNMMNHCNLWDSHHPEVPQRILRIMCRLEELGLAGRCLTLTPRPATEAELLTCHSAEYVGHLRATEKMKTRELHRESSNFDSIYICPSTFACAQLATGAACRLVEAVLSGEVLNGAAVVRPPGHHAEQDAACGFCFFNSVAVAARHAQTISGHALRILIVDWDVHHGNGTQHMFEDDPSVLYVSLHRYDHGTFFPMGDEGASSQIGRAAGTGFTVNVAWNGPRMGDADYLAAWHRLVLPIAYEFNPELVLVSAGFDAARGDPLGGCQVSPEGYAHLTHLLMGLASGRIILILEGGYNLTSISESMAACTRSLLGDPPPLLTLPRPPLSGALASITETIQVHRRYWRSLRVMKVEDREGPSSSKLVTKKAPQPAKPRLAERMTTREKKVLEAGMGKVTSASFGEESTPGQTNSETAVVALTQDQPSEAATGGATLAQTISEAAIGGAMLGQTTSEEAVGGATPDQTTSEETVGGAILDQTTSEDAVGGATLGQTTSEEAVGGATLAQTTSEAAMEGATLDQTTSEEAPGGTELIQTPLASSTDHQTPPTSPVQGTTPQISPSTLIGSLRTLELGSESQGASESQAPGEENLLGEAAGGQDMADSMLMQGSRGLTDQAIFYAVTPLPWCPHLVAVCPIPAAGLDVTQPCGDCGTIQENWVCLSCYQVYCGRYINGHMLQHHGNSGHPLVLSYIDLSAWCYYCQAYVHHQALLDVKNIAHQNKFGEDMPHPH
Kind of assay: HDAC activity assay, HDAC6.

For a further assay, the target named is T2, HDAC7 (Homo sapiens, UniProt Q8WUI4).
T2 sequence (Q8WUI4 1-952): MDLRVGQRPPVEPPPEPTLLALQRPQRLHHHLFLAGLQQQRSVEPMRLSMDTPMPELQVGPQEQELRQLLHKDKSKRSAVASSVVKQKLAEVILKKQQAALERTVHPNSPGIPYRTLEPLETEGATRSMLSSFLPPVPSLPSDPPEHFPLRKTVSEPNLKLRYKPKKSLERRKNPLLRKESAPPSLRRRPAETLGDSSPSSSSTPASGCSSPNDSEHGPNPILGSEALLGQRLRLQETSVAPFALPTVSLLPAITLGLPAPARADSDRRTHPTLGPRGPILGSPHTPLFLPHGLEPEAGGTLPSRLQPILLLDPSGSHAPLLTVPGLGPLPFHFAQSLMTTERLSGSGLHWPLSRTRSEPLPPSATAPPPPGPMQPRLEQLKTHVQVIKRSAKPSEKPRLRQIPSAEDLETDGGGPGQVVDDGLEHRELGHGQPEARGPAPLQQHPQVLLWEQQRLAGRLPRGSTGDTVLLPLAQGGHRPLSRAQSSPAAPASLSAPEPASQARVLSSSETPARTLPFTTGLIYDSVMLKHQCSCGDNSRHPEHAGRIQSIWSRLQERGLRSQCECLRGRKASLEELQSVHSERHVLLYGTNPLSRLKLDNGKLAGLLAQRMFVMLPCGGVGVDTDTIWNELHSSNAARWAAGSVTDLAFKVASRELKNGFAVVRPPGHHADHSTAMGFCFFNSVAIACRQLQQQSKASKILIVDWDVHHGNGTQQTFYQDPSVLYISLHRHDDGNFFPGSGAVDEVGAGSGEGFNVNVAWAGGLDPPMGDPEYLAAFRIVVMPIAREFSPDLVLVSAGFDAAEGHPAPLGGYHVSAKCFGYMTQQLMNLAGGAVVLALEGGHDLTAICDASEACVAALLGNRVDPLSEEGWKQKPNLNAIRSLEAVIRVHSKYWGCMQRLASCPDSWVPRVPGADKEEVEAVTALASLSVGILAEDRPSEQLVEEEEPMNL
Kind of assay: HDAC activity assay, HDAC7.

HDAC9, sequence (Q9UKV0 whole entry): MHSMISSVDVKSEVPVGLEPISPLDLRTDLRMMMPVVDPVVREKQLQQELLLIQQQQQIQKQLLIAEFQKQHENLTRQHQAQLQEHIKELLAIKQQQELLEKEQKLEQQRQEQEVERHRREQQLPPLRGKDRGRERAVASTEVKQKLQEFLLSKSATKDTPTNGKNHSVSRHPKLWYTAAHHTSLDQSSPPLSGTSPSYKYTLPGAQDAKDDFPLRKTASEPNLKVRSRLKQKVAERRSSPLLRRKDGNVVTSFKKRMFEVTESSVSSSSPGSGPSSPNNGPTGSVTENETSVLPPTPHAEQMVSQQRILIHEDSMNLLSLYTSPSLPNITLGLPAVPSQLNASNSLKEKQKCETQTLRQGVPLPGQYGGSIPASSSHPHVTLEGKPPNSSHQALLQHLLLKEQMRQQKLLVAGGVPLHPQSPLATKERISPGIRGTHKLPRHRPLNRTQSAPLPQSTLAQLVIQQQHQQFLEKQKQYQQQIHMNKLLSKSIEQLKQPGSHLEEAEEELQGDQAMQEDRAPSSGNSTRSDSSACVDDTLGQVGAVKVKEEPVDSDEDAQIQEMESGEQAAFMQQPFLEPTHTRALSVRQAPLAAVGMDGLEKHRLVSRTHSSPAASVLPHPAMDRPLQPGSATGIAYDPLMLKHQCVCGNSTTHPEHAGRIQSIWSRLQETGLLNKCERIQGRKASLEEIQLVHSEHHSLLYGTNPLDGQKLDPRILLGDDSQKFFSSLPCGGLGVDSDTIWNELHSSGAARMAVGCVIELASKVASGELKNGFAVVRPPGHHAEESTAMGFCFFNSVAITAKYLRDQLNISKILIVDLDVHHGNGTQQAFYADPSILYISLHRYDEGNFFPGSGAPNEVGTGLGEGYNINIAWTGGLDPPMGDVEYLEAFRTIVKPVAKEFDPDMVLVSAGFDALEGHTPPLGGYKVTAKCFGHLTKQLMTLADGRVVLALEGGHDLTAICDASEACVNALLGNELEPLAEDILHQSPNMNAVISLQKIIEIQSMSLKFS
HDAC4, sequence (P56524 whole entry, species assumed): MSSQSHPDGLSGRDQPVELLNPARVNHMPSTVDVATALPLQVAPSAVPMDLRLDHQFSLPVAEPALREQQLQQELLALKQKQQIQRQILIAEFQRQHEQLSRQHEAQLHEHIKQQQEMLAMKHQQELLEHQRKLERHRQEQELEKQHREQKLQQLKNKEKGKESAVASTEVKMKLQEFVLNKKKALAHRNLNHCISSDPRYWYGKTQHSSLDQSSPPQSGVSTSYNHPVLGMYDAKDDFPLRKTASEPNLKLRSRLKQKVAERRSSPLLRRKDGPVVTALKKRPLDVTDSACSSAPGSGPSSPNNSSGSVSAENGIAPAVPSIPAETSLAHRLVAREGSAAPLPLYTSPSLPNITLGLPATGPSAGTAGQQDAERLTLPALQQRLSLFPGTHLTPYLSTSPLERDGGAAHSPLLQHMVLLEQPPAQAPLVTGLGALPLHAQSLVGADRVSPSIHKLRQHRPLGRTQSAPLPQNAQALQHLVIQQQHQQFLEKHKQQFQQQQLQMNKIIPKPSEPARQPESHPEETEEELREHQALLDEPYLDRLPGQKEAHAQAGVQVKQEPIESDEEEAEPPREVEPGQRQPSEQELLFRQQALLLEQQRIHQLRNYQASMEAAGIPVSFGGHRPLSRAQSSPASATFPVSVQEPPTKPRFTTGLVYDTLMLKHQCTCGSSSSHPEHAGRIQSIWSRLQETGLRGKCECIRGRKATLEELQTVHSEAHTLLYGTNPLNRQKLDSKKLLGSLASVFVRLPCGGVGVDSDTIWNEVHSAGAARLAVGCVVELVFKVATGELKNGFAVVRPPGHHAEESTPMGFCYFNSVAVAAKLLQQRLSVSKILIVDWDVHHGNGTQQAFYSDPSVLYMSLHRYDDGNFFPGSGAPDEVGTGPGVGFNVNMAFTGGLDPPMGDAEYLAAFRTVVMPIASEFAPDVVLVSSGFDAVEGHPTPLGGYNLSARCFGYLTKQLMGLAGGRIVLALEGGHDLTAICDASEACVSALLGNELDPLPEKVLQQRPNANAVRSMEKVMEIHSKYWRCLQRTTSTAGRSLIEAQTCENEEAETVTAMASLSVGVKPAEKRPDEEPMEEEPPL

Turning to `O=C(NO)c1ccc(CN2c3ccccc3Oc3ccccc32)cc1` [Compound 7a, N-Hydroxy-4-[(10H-phenoxazin-10-yl)methyl]benzamide], the IC50 against HDAC9 was determined as 2200 ± 10 nM; against HDAC4, 4320 ± 110 nM; on HDAC6, 17 ± 3 nM; at HDAC7, 790 ± 30 nM.
Consider `NC(=O)c1ccc2c(c1)Oc1ccccc1N2Cc1ccc(C(=O)NO)cc1` [Compound 7e, N-Hydroxy-4-[(3-carbamoyl-10H-phenoxazin-10-yl)methyl]benzamide], for which the 50% inhibitory concentration (IC50) against HDAC9 was 1040 ± 200 nM; against HDAC4, 1410 ± 180 nM; against HDAC6, 8 nM; against HDAC7, 520 ± 10 nM.
Consider `O=C(NO)c1ccc(CN2c3ccccc3Oc3ccc(C(=O)Nc4ccccc4)cc32)cc1` [Compound 12b, N-Hydroxy-4-[(2-phenylcarbamoylphenoxazin-10-yl)methyl]benzamide], for which the IC50 against HDAC9 came to 3490 ± 700 nM; on HDAC4, 3660 ± 220 nM; at HDAC6 it was 46 ± 2 nM; against HDAC7 it was 2260 ± 10 nM.
As to `O=C(NO)c1ccc(CN2c3ccccc3Oc3cc(C(=O)Nc4ccc(C(=O)c5ccccc5)cc4)ccc32)cc1` [Compound 12c, N-Hydroxy-4-{[3–(4-benzoylphenyl)carbamoyl-phenoxazin-10-yl]methyl}benzamide], the IC50 at HDAC9 turned out to be 15200 ± 500 nM; against HDAC4, 2070 ± 140 nM; on HDAC6, 74.8 ± 2 nM; at HDAC7, 460 ± 20 nM.
Turning to `O=C(NO)c1ccc(CN2c3ccccc3Oc3cc(C(=O)Nc4ccccc4)ccc32)cc1` [Compound 12d, N-Hydroxy-4-[(3-phenylcarbamoylphenoxazin-10-yl)methyl]benzamide], the IC50 is 3640 ± 60 nM against HDAC9, 2940 ± 520 nM against HDAC4, 43.1 ± 3 nM against HDAC6 and 1580 ± 300 nM at HDAC7.
The like results for `N#Cc1ccc2c(c1)Oc1ccccc1N2Cc1ccc(C(=O)NO)cc1` [Compound 16, N-Hydroxy-4-[(3-cyano-10H-phenoxazin-10-yl)methyl]benzamide] were, in that order, 4080 ± 200 nM, 3230 ± 590 nM, 20 nM and 1220 ± 320 nM.
On to `O=C(NO)c1ccc(CN2c3ccccc3Oc3cc(Br)ccc32)cc1` [Compound 18, N-Hydroxy-4-[(3-bromo-10H-phenoxazin-10-yl)methyl]benzamide], for which the 50% inhibitory concentration (IC50) is 1560 ± 190 nM against HDAC9, 3180 ± 330 nM against HDAC4, 15 nM on HDAC6 and 1750 ± 10 nM against HDAC7.
Regarding `O=C(NO)c1ccc(CN2c3ccccc3Oc3cc(-c4ccccc4)ccc32)cc1` [Compound 20, N-Hydroxy-4-[(3-phenyl-10H-phenoxazin-10-yl)methyl]benzamide], the concentration for half-maximal inhibition (IC50) against HDAC9 worked out at 6320 ± 2060 nM; against HDAC4, 8060 ± 210 nM; against HDAC6, 23 ± 3 nM; at HDAC7, 5120 ± 20 nM.

One may read the IC50 as the concentration that inhibits the measured activity by half. A low value points to higher potency.
